Measurements from PubChem BioAssay (NCI).
Values joined by “and” are separate entries in the source; they are usually repeats but may differ in a detail not shown here. Equal values may be shown once.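 Step 1: Grow cells in 96-well plates. Step 2: Expose to compound for 48 hours at 5 concentrations. Step 3: Interpolate endpoints linearly; if unreached, use highest concentration. Abbreviation: GI50, concentration required for 50% inhibition of growth. TGI: concentration producing complete growth inhibition.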

How the values were obtained:
Assay in all cases: DTP human tumour cell line panel, 48 h
[1] = test system: A549 NSCLC
[2] = test system: HL-60(TB) leukemia
[3] = test system: HOP-92 NSCLC
[4] = test system: HS 578T breast
[5] = test system: LOX IMVI melanoma
[6] = test system: OVCAR-3 ovarian
[7] = test system: RPMI-8226 leukemia
[8] = test system: SF-295 CNS
[9] = test system: SW-620 colon
[10] = test system: T-47D breast

Compound	GI50 [1]	TGI [1]	GI50 [2]	TGI [2]	GI50 [3]	TGI [3]	GI50 [4]	TGI [4]	GI50 [5]	TGI [5]	GI50 [6]	TGI [6]	GI50 [7]	TGI [7]	GI50 [8]	TGI [8]	GI50 [9]	TGI [9]	GI50 [10]	TGI [10]
O=C(O)c1cn(C2CC2)c2cc(N3CCN(C(=O)Nc4nc(-c5ccccc5)cs4)CC3)c(F)cc2c1=O	2.15 µM	> 100 µM	1.62 µM	4.41 µM	1.13 µM	5.99 µM	0.861 µM	72.1 µM	0.281 µM	1.03 µM	0.582 µM	16.5 µM	0.826 µM	7.41 µM	2.13 µM	9.24 µM	3.2 µM	> 100 µM	1.74 µM	> 100 µM
S=c1[nH]nc(Cc2ccccc2)c(=S)[nH]1		> 100 µM		> 100 µM		> 73.1 µM		> 100 µM		99.3 µM		> 100 µM		> 100 µM		> 100 µM		> 100 µM		75.4 µM
O=[N+]([O-])c1ccc(C2CC(c3ccccc3Cl)=Nc3ccccc3S2=O)cc1 (stereo not drawn)		38 µM		3.63 µM		31.5 µM		7.46 µM		3.79 µM		8.12 µM		4.19 µM		15.3 µM		3.91 µM		44.2 µM
CCOc1cc(Br)c(C(C)NC(=O)c2cccc(OC)c2)cc1OCC (stereo not drawn)	10.8 µM	> 100 µM	3.8 µM	> 61.3 µM	8.97 µM	> 83.5 µM	15.5 µM	> 96.6 µM	22.8 µM	> 100 µM	5.42 µM	38.7 µM	13.9 µM	> 92.1 µM	8.3 µM	> 89.5 µM	4.6 µM	> 100 µM	9.53 µM	> 100 µM
O=C1C2=C(c3ccccc31)C(c1ccccc1)N1C(=O)CSC1=N2 (stereo not drawn)		> 100 µM		95.8 µM		> 100 µM		82.2 µM		> 100 µM		> 100 µM		> 100 µM		> 100 µM		> 100 µM		77.6 µM
COc1cc(OC)c2nccc(NCCCN(C)C)c2c1[N+](=O)[O-]		> 100 µM		> 100 µM		> 100 µM		> 100 µM		> 100 µM		> 100 µM		> 100 µM		> 100 µM		> 100 µM		> 100 µM
Cc1cc(Nc2nc(-c3cccnc3)nc3ccccc23)n[nH]1	0.672 µM	> 100 µM	3.27 µM	49 µM	1.62 µM	6.63 µM	0.364 µM	3.74 µM	0.712 µM	3.57 µM	3.74 µM	> 100 µM	> 38.5 µM	> 95.1 µM	2.72 µM	> 100 µM	1.09 µM	> 100 µM	2.02 µM	> 75.4 µM
COc1ccccc1C1=C(Nc2ccccc2)C(=O)NC1=O	> 25 µM	> 25 µM	> 25 µM	> 25 µM			6.25 µM	> 25 µM	> 25 µM	> 25 µM	> 25 µM	> 25 µM	> 25 µM	> 25 µM	> 25 µM	> 25 µM	> 25 µM	> 25 µM	> 25 µM	> 25 µM
CC(C)(C)c1ccc(OC(=O)Nc2ccc(O)c(C(=O)O)c2)cc1		> 100 µM		> 100 µM		> 100 µM		> 100 µM		> 100 µM		> 100 µM		> 100 µM		> 100 µM		> 100 µM		> 100 µM
CC(=O)N1N=C(c2ccc(Nc3ccnc4cc(Cl)ccc34)cc2)CC1c1ccc(Cl)cc1 (stereo not drawn)	8.81 µM	> 100 µM	3.56 µM	> 100 µM	> 100 µM	> 100 µM	> 100 µM	> 100 µM	3.15 µM	> 100 µM	7.19 µM	> 100 µM			3.58 µM	> 100 µM	> 100 µM	> 100 µM	1.57 µM	> 100 µM
COc1ccc(/C=c2\sc3n(c2=O)C2C(NN=3)N(C)C(=O)N2C)cc1 (stereo not drawn)	1.35 µM	> 100 µM	0.501 µM	1.96 µM	0.513 µM	> 100 µM	0.659 µM	8.96 µM	1.63 µM	> 100 µM	0.481 µM	3.53 µM	0.455 µM	> 19.6 µM	0.917 µM	> 24.5 µM	0.747 µM	> 100 µM	1.56 µM	> 100 µM
O=[N+]([O-])c1ccc(Oc2nc(Nc3ccc(O[C@H]4CO[C@H]5[C@@H]4OC[C@@H]5O)c(Cl)c3)ncc2F)c(Cl)c1	1.86 µM	6.15 µM	1.53 µM	4.11 µM	0.807 µM	2.65 µM	0.516 µM	3.43 µM	0.667 µM	2.28 µM	1.4 µM	5.83 µM	0.61 µM	2.56 µM	1.39 µM	2.92 µM	1.38 µM	12.6 µM	1.13 µM	8.06 µM
Nc1nc(N)c(C=Nc2ccc(Br)cc2)c(Nc2ccc(Br)cc2)n1	12.4 µM	29.6 µM	15.6 µM	49.2 µM			8.96 µM	26.8 µM	3.01 µM	16.4 µM	11.8 µM	25.3 µM	16.6 µM	38.7 µM	11.3 µM	38.5 µM	14.1 µM	99.1 µM	4.22 µM	18.4 µM
CC1=C(/C=C/C(C)=C/C=C/C(C)=C/C=N/NC(=S)NC(=S)N/N=C/C=C(C)/C=C/C=C(C)/C=C/C2=C(C)CCCC2(C)C)C(C)(C)CCC1	5.4 µM and 3.79 µM	12.7 µM and 10.8 µM	1.77 µM and 1 µM	9.22 µM and 4.3 µM	5.82 µM and 2.33 µM	13.4 µM and 6.76 µM	3.25 µM and 1.91 µM	18.7 µM and 9.97 µM	1.8 µM and 1.11 µM	6.53 µM and 3.02 µM	1.47 µM and 0.802 µM	4.92 µM and 1.53 µM	3.31 µM and 1.29 µM	23.1 µM and 4.55 µM	4.09 µM and 2.1 µM	11.7 µM and 9.42 µM	1.44 µM and 0.86 µM	5.42 µM and 1.74 µM	1.49 µM and 1.09 µM	8.43 µM and 4.34 µM
CC1=CC(=O)C(C(C)C)=CC1=Nc1cc(Br)c(O)c(Br)c1	4.98 µM	> 100 µM	3.48 µM	8.5 µM	11.5 µM	40.8 µM	2.76 µM	21.1 µM	5.04 µM	20.4 µM	2.68 µM	7.47 µM	4.51 µM	27.5 µM	1.4 µM	5.53 µM	4.18 µM	15.4 µM	5.74 µM	21.2 µM
FC(F)(F)c1ccc(-c2cnc(-n3cc(COCCN4CCCCC4)nn3)nc2NC2CCCCCC2)cc1	4.16 µM	8.18 µM	3.84 µM	8.26 µM	0.523 µM	3.37 µM	3.91 µM	10.6 µM	3.89 µM	7.88 µM	3.98 µM	7.48 µM	3.85 µM	9.03 µM	4.85 µM	9.85 µM	3.79 µM	7.95 µM	4.12 µM	9.21 µM
Clc1ccc(-c2nnc(-c3cccc4ccccc34)o2)cc1Cl		> 100 µM		> 100 µM		> 100 µM		> 100 µM		> 100 µM		> 100 µM		> 100 µM		> 100 µM		> 100 µM		> 100 µM
CN(COC(=O)c1ccccc1)c1nc(N(C)COC(=O)c2ccccc2)nc(N(C)COC(=O)c2ccccc2)n1		> 100 µM		> 100 µM		63.1 µM		> 100 µM		> 100 µM		> 100 µM		> 100 µM		> 84.9 µM		> 100 µM		> 100 µM
O=C(O)C1CCCCC1c1c2ccc(=O)c(O)c-2oc2c(O)c(O)ccc12 (stereo not drawn)		48.6 µM		65.2 µM		> 100 µM		> 100 µM		32.6 µM		> 100 µM		69.7 µM		56.4 µM		47.7 µM		> 100 µM
COc1cccc(/C=N/NC(=S)NC2CC3CCC2C3)c1O (stereo not drawn)	4 µM	15.9 µM	16.6 µM	60.3 µM			4.27 µM	22.2 µM	5.09 µM	18 µM	3.07 µM	9.45 µM	11.1 µM	49.7 µM	4.63 µM	18 µM	13.7 µM	> 100 µM	3.13 µM	11.8 µM
COc1cc(-c2cc(-c3ccc(Nc4ccnc5cc(Cl)ccc45)cc3)nc(N3CCOCC3)n2)cc(OC)c1OC	1.76 µM	3.47 µM	5.99 µM	82.1 µM	1.85 µM	4.81 µM	2.25 µM	5.35 µM			1.89 µM	3.67 µM	1.57 µM	5.02 µM	1.95 µM	4.12 µM	1.28 µM	3.45 µM	2.06 µM	4.65 µM
COC1=C(C)C(=O)c2c(c(CCCl)c3n2CCC3O)C1=O (stereo not drawn)			3.34 µM	30.4 µM	6.21 µM	24.7 µM	1.06 µM	6.65 µM	0.592 µM	5.23 µM	2.19 µM	6.72 µM	3.08 µM	21.8 µM	0.237 µM	0.779 µM	1.09 µM	15.8 µM	16.3 µM	> 82.9 µM
